Measured values reported in patent US20260285872A1, “COMPOUNDS AND METHODS FOR DEGRADING GSPT1” (priority 2023, published 2026).
pIC50: −log10 of the molar value. Read-outs that look alike come from different tables or passages of the source.

Assays:
[1] = molecular target: T1, GSPT1 (Homo sapiens, UniProt P15170+Q96SW2); assay: cell-based; details: read-out: GSPT1 degradation classification
[2] = tested on: MV-4-11 cells; assay: AML cell viability, CellTiter-Glo, MV-4-11 cells; format: cell-based; details: Homo sapiens
Procedure: MV4-11 cells were obtained from ATCC and grown in IMDM supplemented with 10% FBS. The cells were maintained at 37° C. under 5% CO2. […] The luminescence was normalized to that of DMSO-treated samples. IC50 values were obtained using three-parameter non-linear regressions using Prism (GraphPad). […] Cell viability was measured using the CellTiter-Glo reagent after 44 hours of treatment. […] MV4-11 cells were obtained from ATCC and grown in IMDM supplemented with 10% FBS. The cells were maintained at 37° C. under 5% CO2. […] Cell viability was measured using the CellTiter-Glo reagent after 44 hours of treatment.

[3] = molecular target: T1, GSPT1; format: cell-based
Procedure: GSPT1_HiBIT_HEK293 cells were culture in DMEM medium with 10% FBS under standard tissue culture conditions. […] GSPT1 level was determined in along with the Nano-Glo HiBiT Lytic Detection system [Promega N3050] with final concentration of 1×. The luminescence was normalized to that of DMSO-treated samples. DC50 values were obtained using three-parameter non-linear regressions using Prism (GraphPad).

[4] = tested on: NCI-H1155 cells; assay: NSCLC cell viability, CellTiter-Glo, NCI-H1155 cells; format: cell-based; details: Homo sapiens; NCI-H1155 cells, CellTiter-Glo, 72 hours of treatment; read-out: Cell viability classification (NCI-H1155)
[5] = MV4-11, MV-4-11 cells, CellTiter-Glo, 44 hours of treatment, TABLE 1, read-out: Cell viability classification
[6] = MV4-11, MV-4-11 cells, CellTiter-Glo, 44 hours of treatment, TABLE 5, read-out: Cell viability classification (MV-4-11)
[7] = MV4-11, MV-4-11 cells, 1 μM, 6 hours, Western Blot, % reduction of GSPT1 compared to DMSO, normalized to GAPDH
[8] = DC50, GSPT1_HiBIT_HEK293 cells, 16 hours, Nano-Glo HiBiT Lytic Detection; read-out: GSPT1 degradation classification
[9] = read-out: GSPT1 degradation classification; DC50, GSPT1_HiBIT_HEK293 cells, 16 hours, Nano-Glo HiBiT Lytic Detection

T1 sequence (P15170 whole entry): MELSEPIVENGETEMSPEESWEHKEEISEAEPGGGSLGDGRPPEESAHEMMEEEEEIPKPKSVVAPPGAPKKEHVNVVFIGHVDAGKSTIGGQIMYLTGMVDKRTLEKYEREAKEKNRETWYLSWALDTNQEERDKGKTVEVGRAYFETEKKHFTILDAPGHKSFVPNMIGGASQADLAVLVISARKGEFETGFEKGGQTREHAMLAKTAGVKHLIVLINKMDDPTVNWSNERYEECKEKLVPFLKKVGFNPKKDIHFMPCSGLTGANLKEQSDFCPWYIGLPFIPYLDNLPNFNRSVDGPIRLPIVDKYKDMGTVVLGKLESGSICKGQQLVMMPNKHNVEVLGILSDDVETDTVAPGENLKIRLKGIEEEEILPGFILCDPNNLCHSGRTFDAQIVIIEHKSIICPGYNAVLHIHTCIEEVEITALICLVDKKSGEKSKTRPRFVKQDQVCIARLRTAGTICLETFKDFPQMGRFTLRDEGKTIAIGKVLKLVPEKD
T1 sequence (Q96SW2 whole entry): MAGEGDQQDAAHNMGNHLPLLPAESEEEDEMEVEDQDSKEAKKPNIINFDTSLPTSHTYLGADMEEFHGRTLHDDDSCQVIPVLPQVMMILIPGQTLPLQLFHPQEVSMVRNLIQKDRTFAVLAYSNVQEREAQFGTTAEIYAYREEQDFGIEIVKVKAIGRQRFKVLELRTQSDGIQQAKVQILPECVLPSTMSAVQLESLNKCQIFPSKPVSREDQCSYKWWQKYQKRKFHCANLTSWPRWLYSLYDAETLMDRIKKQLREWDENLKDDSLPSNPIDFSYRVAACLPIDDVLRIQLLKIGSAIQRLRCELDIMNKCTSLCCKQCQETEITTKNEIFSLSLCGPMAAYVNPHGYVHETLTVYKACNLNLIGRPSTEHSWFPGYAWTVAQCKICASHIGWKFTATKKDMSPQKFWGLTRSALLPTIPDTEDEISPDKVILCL
T1 sequence (Q16531 whole entry partner): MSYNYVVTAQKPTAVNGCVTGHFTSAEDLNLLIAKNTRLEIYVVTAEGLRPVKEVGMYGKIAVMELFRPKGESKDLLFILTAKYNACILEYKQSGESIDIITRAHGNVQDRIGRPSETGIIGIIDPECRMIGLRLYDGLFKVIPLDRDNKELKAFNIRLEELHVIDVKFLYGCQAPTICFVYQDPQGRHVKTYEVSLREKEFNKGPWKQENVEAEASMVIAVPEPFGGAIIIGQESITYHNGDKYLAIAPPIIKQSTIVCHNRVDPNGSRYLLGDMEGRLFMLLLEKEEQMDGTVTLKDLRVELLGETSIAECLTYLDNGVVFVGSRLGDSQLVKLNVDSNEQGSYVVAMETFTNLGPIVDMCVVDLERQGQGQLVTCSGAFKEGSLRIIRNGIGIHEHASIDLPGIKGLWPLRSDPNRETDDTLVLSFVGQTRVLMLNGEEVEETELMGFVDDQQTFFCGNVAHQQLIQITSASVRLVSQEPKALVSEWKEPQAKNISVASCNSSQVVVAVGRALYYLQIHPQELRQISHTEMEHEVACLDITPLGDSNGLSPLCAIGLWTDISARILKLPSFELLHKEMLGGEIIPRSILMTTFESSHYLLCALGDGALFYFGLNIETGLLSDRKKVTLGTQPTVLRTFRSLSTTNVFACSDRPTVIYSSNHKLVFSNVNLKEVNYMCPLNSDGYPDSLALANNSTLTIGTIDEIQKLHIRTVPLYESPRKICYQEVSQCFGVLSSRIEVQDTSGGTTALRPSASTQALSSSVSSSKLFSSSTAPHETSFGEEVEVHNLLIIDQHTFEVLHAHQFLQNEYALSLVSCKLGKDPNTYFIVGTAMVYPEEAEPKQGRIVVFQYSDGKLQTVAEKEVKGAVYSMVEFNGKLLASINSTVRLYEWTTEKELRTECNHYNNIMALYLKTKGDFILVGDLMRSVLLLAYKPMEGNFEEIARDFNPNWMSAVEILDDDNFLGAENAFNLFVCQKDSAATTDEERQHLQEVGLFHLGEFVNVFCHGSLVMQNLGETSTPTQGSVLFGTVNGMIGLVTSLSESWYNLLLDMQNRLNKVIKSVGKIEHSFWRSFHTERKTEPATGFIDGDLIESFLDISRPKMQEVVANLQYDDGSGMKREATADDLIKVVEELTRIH

SMILES: O=C1CCC(N2Cc3cc(C(=O)N4CCc5cc(F)cc(F)c54)ccc3C2=O)C(=O)N1 (stereo not shown) [Example 57, 3-(5-(5,7-difluoroindoline-1-carbonyl)-1-oxoisoindolin-2-yl)piperidine-2,6-dione]
- inhibition at 1 µM ([1]; MV4-11, 6 h): 50 to 75%
- pIC50 [2, 5]: 6.00 to 7.00

SMILES: O=C1CCN(c2ccc3ccc(C(=O)N4CCc5cccc(F)c54)cc3c2)C(=O)N1 [Example 118, 1-(7-(7-fluoroindoline-1-carbonyl)naphthalen-2-yl)dihydropyrimidine-2,4(1H,3H)-dione]
- pIC50 [2, 6]: < 6.00

SMILES: O=C1CCC(N2Cc3cc(C(=O)Nc4csc5ccccc45)ccc3C2=O)C(=O)N1 (stereo not shown) [Example 8, N-(benzo[b]thiophen-3-yl)-2-(2,6-dioxopiperidin-3-yl)-1-oxoisoindoline-5-carboxamide]
- inhibition at 1 µM ([1]; MV4-11, 6 h): > 75%
- pIC50 [2, 5]: > 7.00

SMILES: O=C1CCC(N2Cc3cc(C(=O)N4CCc5ccc(C(F)(F)F)cc54)ccc3C2=O)C(=O)N1 (stereo not shown) [Example 79, 3-(1-oxo-5-(6-(trifluoromethyl)indoline-1-carbonyl)isoindolin-2-yl)piperidine-2,6-dione]
- inhibition at 1 µM ([1]; MV4-11, 6 h): 50 to 75%
- pIC50 [2, 5]: 6.00 to 7.00

SMILES: O=C1CCC(N2Cc3cc(C(=O)Nc4csc5ncccc45)ccc3C2=O)C(=O)N1 (stereo not shown) [Example 62, 2-(2,6-dioxopiperidin-3-yl)-1-oxo-N-(thieno[2,3-b]pyridin-3-yl)isoindoline-5-carboxamide]
- inhibition at 1 µM [1, 7]: < 50%
- pIC50 [2, 5]: < 6.00

SMILES: O=C1CCC(N2Cc3cc(C(=O)N4Cc5cccc(C(F)(F)F)c5C4)ccc3C2=O)C(=O)N1 (stereo not shown) [Example 21, 3-(1-oxo-5-(4-(trifluoromethyl)isoindoline-2-carbonyl)isoindolin-2-yl)piperidine-2,6-dione]
- inhibition at 1 µM [1, 7]: > 75%
- pIC50 [2, 5]: > 7.00

SMILES: COc1cccc2c1CCN2C(=O)c1ccc2c(c1)CN(C1CCC(=O)NC1=O)C2=O (stereo not shown) [Example 82, 3-(5-(4-methoxyindoline-1-carbonyl)-1-oxoisoindolin-2-yl)piperidine-2,6-dione]
- inhibition at 1 µM [1, 7]: 50 to 75%
- pIC50 [2, 5]: > 7.00

SMILES: O=C1CCC(N2Cc3cc(C(=O)Nc4csc5cnccc45)ccc3C2=O)C(=O)N1 (stereo not shown) [Example 61, 2-(2,6-dioxopiperidin-3-yl)-1-oxo-N-(thieno[2,3-c]pyridin-3-yl)isoindoline-5-carboxamide]
- inhibition at 1 µM [1, 7]: > 75%
- pIC50 [2, 5]: > 7.00

SMILES: O=C1CCN(c2ccc3ccc(C(=O)N4CCc5ccccc54)cc3c2)C(=O)N1 [Example 120, 1-(7-(indoline-1-carbonyl)naphthalen-2-yl)dihydropyrimidine-2,4(1H,3H)-dione]
- pIC50 [2, 6]: < 6.00

SMILES: O=C1CCC(N2Cc3cc(C(=O)N4Cc5ccccc5C4)ccc3C2=O)C(=O)N1 (stereo not shown) [Example 12, 3-(5-(isoindoline-2-carbonyl)-1-oxoisoindolin-2-yl)piperidine-2,6-dione]
- pIC50 [2, 5]: > 7.00

SMILES: O=C1CCC(N2Cc3cc(C(=O)N4CCc5ccccc54)ccc3C2=O)C(=O)N1 (stereo not shown) [Example 11, 3-(5-(indoline-1-carbonyl)-1-oxoisoindolin-2-yl)piperidine-2,6-dione]
- inhibition at 1 µM ([1]; MV4-11, 6 h): > 75%
- pIC50 ([2]; MV4-11, 44 h, read-out: Cell viability classification): > 7.00

SMILES: COc1ccc2c(c1)N(C(=O)c1ccc3c(c1)CN(C1CCC(=O)NC1=O)C3=O)CC2 (stereo not shown) [Example 84, 3-(5-(6-methoxyindoline-1-carbonyl)-1-oxoisoindolin-2-yl)piperidine-2,6-dione]
- inhibition at 1 µM ([1]; MV4-11, 6 h): < 50%
- pIC50 [2, 5]: 6.00 to 7.00

SMILES: O=C1CCC(N2Cc3cc(C(=O)Nc4csc5cccnc45)ccc3C2=O)C(=O)N1 (stereo not shown) [Example 59, 2-(2,6-dioxopiperidin-3-yl)-1-oxo-N-(thieno[3,2-b]pyridin-3-yl)isoindoline-5-carboxamide]
- inhibition at 1 µM [1, 7]: > 75%
- pIC50 [2, 5]: > 7.00

SMILES: COc1cc(F)c2c(c1)CCN2C(=O)c1ccc2c(c1)CN(C1CCC(=O)NC1=O)C2=O (stereo not shown) [Example 64, 3-(5-(7-fluoro-5-methoxyindoline-1-carbonyl)-1-oxoisoindolin-2-yl)piperidine-2,6-dione]
- pIC50 ([2]; MV4-11, TABLE 2, MV-4-11 cells assumed, CellTiter-Glo, 44 hours, read-out: Cell viability classification): > 7.00

SMILES: O=C1CCC(N2Cc3cc(C(=O)N4CCc5c4cccc5C(F)(F)F)ccc3C2=O)C(=O)N1 (stereo not shown) [Example 77, 3-(1-oxo-5-(4-(trifluoromethyl)indoline-1-carbonyl)isoindolin-2-yl)piperidine-2,6-dione]
- inhibition at 1 µM ([1]; MV4-11, 6 h): > 75%
- pIC50 [2, 5]: > 7.00

SMILES: O=C1CCC(N2Cc3cc(C(=O)Nc4ccsc4)ccc3C2=O)C(=O)N1 (stereo not shown) [Example 58, 2-(2,6-dioxopiperidin-3-yl)-1-oxo-N-(thiophen-3-yl)isoindoline-5-carboxamide]
- inhibition at 1 µM ([1]; MV4-11, 6 h): > 75%
- pIC50 [2, 5]: > 7.00

SMILES: O=C1CCN(c2ccc3ccc(C(=O)N4Cc5cccc(F)c5C4)cc3c2)C(=O)N1 [Example 127, 1-(7-(4-fluoroisoindoline-2-carbonyl)naphthalen-2-yl)dihydropyrimidine-2,4(1H,3H)-dione]
- pIC50 [2, 6]: 6.00 to 7.00

SMILES: O=C1CC[C@H](N2Cc3cc(C(=O)Nc4cncc5ccccc45)ccc3C2=O)C(=O)N1 (stereo in doubt) [Example 2, 2-(2,6-dioxopiperidin-3-yl)-N-(isoquinolin-4-yl)-1-oxoisoindoline-5-carboxamide]
- pIC50 [2, 5]: 6.00 to 7.00

SMILES: O=C1CCN(c2ccc3ccc(C(=O)N4CCc5cc(F)ccc54)cc3c2)C(=O)N1 [Example 119, 1-(7-(5-fluoroindoline-1-carbonyl)naphthalen-2-yl)dihydropyrimidine-2,4(1H,3H)-dione]
- pIC50 [2, 6]: < 6.00

SMILES: O=C1CCN(c2ccc3ccc(C(=O)N4Cc5ccccc5C4)cc3c2)C(=O)N1 [Example 125, 1-(7-(isoindoline-2-carbonyl)naphthalen-2-yl)dihydropyrimidine-2,4(1H,3H)-dione]
- pIC50 [2, 6]: 6.00 to 7.00

SMILES: O=C1CCN(c2ccc3ccc(C(=O)N4CCc5c(F)cccc54)cc3c2)C(=O)N1 [Example 126, 1-(7-(4-fluoroindoline-1-carbonyl)naphthalen-2-yl)dihydropyrimidine-2,4(1H,3H)-dione]
- pIC50 [2, 6]: < 6.00

SMILES: O=C1CCN(c2ccc3ccc(C(=O)N4CCCc5ccccc54)cc3c2)C(=O)N1 [Example 128, 1-(7-(1,2,3,4-tetrahydroquinoline-1-carbonyl)naphthalen-2-yl)dihydropyrimidine-2,4(1H,3H)-dione]
- pIC50 [2, 6]: < 6.00

SMILES: O=C1CCC(c2nc3ccc(C(=O)N4CC5(CCC(F)(F)C5)C4)cc3o2)C(=O)N1 (stereo not shown) [Example 198, 3-(6-(6,6-difluoro-2-azaspiro[3.4]octane-2-carbonyl)benzo[d]oxazol-2-yl)piperidine-2,6-dione]
- DC50 [3, 8]: > 1000 nM
- pIC50 [4]: < 6.00

SMILES: O=C1CCC(N2Cc3cc(C(=O)N4Cc5cc(F)cc(F)c5C4)ccc3C2=O)C(=O)N1 (stereo not shown) [Example 103, 3-(5-(4,6-difluoroisoindoline-2-carbonyl)-1-oxoisoindolin-2-yl)piperidine-2,6-dione]
- DC50 [3, 9]: < 100 nM
- pIC50 [4]: > 8.00

SMILES: O=C1CCN(c2ccc3ccc(C(=O)N4CCc5ccccc5C4)cc3c2)C(=O)N1 [Example 129, 1-(7-(1,2,3,4-tetrahydroisoquinoline-2-carbonyl)naphthalen-2-yl)dihydropyrimidine-2,4(1H,3H)-dione]
- pIC50 [2, 6]: < 6.00

SMILES: O=C1CCC(N2Cc3cc(C(=O)N4CC5(C=C(c6ccc(C(F)(F)F)cc6)C5)C4)ccc3C2=O)C(=O)N1 (stereo not shown) [Example 209, 3-(1-oxo-5-(6-(4-(trifluoromethyl)phenyl)-2-azaspiro[3.3]hept-5-ene-2-carbonyl)isoindolin-2-yl)piperidine-2,6-dione]
- DC50 [3, 9]: < 100 nM
- pIC50 [4]: > 8.00

SMILES: O=C1CCC(N2Cc3cc(C(=O)N4Cc5cccc(F)c5C45CC5)ccc3C2=O)C(=O)N1 (stereo not shown) [Example 182, 3-(5-(7′-fluorospiro[cyclopropane-1,1′-isoindoline]-2′-carbonyl)-1-oxoisoindolin-2-yl)piperidine-2,6-dione]
- DC50 [3, 9]: < 100 nM
- pIC50 [4]: > 8.00

SMILES: O=C1CCC(c2nc3ccc(C(=O)N4Cc5c(F)ccc(OC(F)(F)F)c5C4)cc3o2)C(=O)N1 (stereo not shown) [Example 210, 3-(6-(4-fluoro-7-(trifluoromethoxy)isoindoline-2-carbonyl)benzo[d]oxazol-2-yl)piperidine-2,6-dione]
- DC50 [3, 8]: > 1000 nM
- pIC50 [4]: < 6.00

SMILES: O=C1CCC(c2nc3ccc(C(=O)N4Cc5cccc(F)c5C4)cc3o2)C(=O)N1 (stereo not shown) [Example 137, 3-(6-(4-fluoroisoindoline-2-carbonyl)benzo[d]oxazol-2-yl)piperidine-2,6-dione]
- DC50 [3, 8]: 300 to 1000 nM
- pIC50 [4]: 6.00 to 7.00

SMILES: O=C1CCC(N2Cc3cc(C(=O)N4CCC5(CCC(F)(F)C5)C4)ccc3C2=O)C(=O)N1 (stereo not shown) [Example 201, 3-(5-(7,7-difluoro-2-azaspiro[4.4]nonane-2-carbonyl)-1-oxoisoindolin-2-yl)piperidine-2,6-dione]
- DC50 [3, 9]: > 1000 nM
- pIC50 [4]: 6.00 to 7.00
